Test results: patent publication US10280229B2, “Linkers and their application towards ADC” (MEDSHINE DISCOVERY INC., priority 2014, dated 2019)

The molecules below were run against bovine cathepsin B (Bos taurus, UniProt P07688) (assay: Rate of hydrolysis of fluorescent dipeptide substrates incubated with bovine cathepsin B (release of 7-AMC)). Conditions: incubation with bovine cathepsin B.
Assay type: biochemical
Experimental: A convenient method was developed to identify suitable dipeptide units for the use in drug-linker intermediates. Cbz-protected dipeptides incorporated a fluorescent tag (7-amino-4-methylcouramin, 7-AMC) via a para-aminobenzyl carbonyl fragment were prepared by standard peptide chemistry as shown in Scheme 1. These dipeptide substrates were then incubated with bovine cathepsin B under a similar condition as described by Dubowchik (Biorg. Med. Chem. Lett. 1998, 8, 3341-3346). Rate of hydrolysis by bovine cathepsin B was measured by the release of 7-AMC (Table 1). Novel dipeptides with hydrolysis rates slower than the substrate A were rejected. The three dipeptide units in FS-9, FS-10 and FS-11 were selected as additional dipeptide units for drug-linker intermediate preparation.

| Structure (SMILES) | Rate of Hydrolysis [nmmol/min/mg] |
| --- | --- |
| Cc1cc(=O)oc2cc(NC(=O)OCc3ccc(NC(=O)[C@H](CCCNC(N)=O)NC(=O)[C@@H](NC(=O)OCc4ccccc4)C4CC[S+]([O-])CC4)cc3)ccc12 (stereo partly drawn) | 0.55 |
| Cc1cc(=O)oc2cc(NC(=O)OCc3ccc(NC(=O)[C@H](CCCNC(N)=O)NC(=O)[C@@H](NC(=O)OCc4ccccc4)C4CCCNC4)cc3)ccc12 (stereo partly drawn) | 0 |
| Cc1cc(=O)oc2cc(NC(=O)OCc3ccc(NC(=O)[C@H](CCCN4CCOCC4)NC(=O)[C@@H](NC(=O)OCc4ccccc4)C(C)C)cc3)ccc12 | 27.2 |
| Cc1cc(=O)oc2cc(NC(=O)OCc3ccc(NC(=O)[C@H](CCCN4CCCCC4)NC(=O)[C@@H](NC(=O)OCc4ccccc4)C(C)C)cc3)ccc12 | 25.1 |
| Cc1cc(=O)oc2cc(NC(=O)OCc3ccc(NC(=O)C(CC4CCC(CN)CC4)NC(=O)[C@@H](NC(=O)OCc4ccccc4)C(C)C)cc3)ccc12 (stereo partly drawn) | 20.9 |
| Cc1cc(=O)oc2cc(NC(=O)OCc3ccc(NC(=O)[C@H](CCCNC(N)=O)NC(=O)[C@@H](NC(=O)OCc4ccccc4)C(C)C)cc3)ccc12 [reference compound] | 2.67 |

Other lines, results leading:

| Rate of Hydrolysis [nmmol/min/mg] | Structure (SMILES) |
| --- | --- |
| 0.84 | Cc1cc(=O)oc2cc(NC(=O)OCc3ccc(NC(=O)[C@H](CCCNC(N)=O)NC(=O)[C@@H](NC(=O)OCc4ccccc4)C4CCNCC4)cc3)ccc12 |
| 0.59 | Cc1cc(=O)oc2cc(NC(=O)OCc3ccc(NC(=O)[C@H](CCCNC(N)=O)NC(=O)[C@@H](NC(=O)OCc4ccccc4)C4CCN(C)CC4)cc3)ccc12 |
| 0.63 | CCOC(=O)N1CCC([C@H](NC(=O)OCc2ccccc2)C(=O)N[C@@H](CCCNC(N)=O)C(=O)Nc2ccc(COC(=O)Nc3ccc4c(C)cc(=O)oc4c3)cc2)CC1 |
| 0.84 | Cc1cc(=O)oc2cc(NC(=O)OCc3ccc(NC(=O)[C@H](CCCNC(N)=O)NC(=O)[C@@H](NC(=O)OCc4ccccc4)C4CCOCC4)cc3)ccc12 |
| 0 | Cc1cc(=O)oc2cc(NC(=O)OCc3ccc(NC(=O)[C@H](CCCNC(N)=O)NC(=O)[C@@H](NC(=O)OCc4ccccc4)C4CCSCC4)cc3)ccc12 |
| 0 | Cc1cc(=O)oc2cc(NC(=O)OCc3ccc(NC(=O)[C@H](CCCNC(N)=O)NC(=O)[C@@H](NC(=O)OCc4ccccc4)C4CCS(=O)(=O)CC4)cc3)ccc12 |
